# Reference: US8735584B2 (Merck Patent GmbH, priority 2008, dated 2014)
# Target: T1, GST-Aurora A (Homo sapiens, UniProt O14965)
# T1 construct: N-terminal GST fusion with full length Aurora A (1-403 amino acids); purchased Carna Biosciences 05-101
# T1 sequence (O14965 1-403): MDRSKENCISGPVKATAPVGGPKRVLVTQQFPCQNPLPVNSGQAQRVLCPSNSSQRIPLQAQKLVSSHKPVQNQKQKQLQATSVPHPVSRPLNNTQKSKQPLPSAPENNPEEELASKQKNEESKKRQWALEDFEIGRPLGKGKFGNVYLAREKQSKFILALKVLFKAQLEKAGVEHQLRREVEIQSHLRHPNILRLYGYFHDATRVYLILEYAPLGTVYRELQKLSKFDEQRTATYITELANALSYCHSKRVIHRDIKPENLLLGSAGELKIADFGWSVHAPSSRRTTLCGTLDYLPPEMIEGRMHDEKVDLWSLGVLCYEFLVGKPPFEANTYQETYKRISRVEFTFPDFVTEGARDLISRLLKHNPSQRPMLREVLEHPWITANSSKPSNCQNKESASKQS
# Experiment: Aurora A IC50, Caliper LC3000 mobility shift assay
# Assay type: biochemical
# Conditions: LC3000 method; 15 uM ATP (the KM value); read-out: Aurora Kinase A Activity (IC50)
# Procedure: The Aurora assays described here are performed on two Caliper Life Sciences systems: the LC3000 and the Desktop Profiler. These provide data on enzyme activity via measurement of the relative amounts of phosphorylated or unphosphorylated fluorescently labelled substrate peptide at the end of an enzymatic reaction. These different states of peptide are resolved by applying a potential difference across the sample. The presence of the charged phosphate group on the product (as opposed to the substrate) causes a different peptide mobility between the two peptides. This is visualized by excitation of the fluorescent label on the substrate and product peptides and represented as peaks within the analysis software.
# In order to measure inhibitor activity of Aurora A inhibitors in the Caliper Life Sciences LC3000, a TTP Mosquito liquid handling instrument is used to place 0.25 ul of the appropriate concentration of inhibitor in 100% DMSO (for a dose response curve calculation) into each well of a 384-well plate. To this reaction components are added to a final volume of 25 ul: • 0.067 ng/ul GST-Aurora A (Carna Biosciences 05-101. N-terminal GST fusion with full length Aurora A (1-403 amino acids), accession number NP 940835.1). • 15 uM ATP (Fluke, 02055) • 1 mM DTT (Sigma, D0632) • 1 mM MgCl2 (Sigma, M1028) • 1 uM substrate peptide (sequence FITC-LRRASLG-(CONH2), synthesized by Tufts Peptide Synthesis service. • 100 mM HEPES pH 7.5 (Calbiochem, 391338) • 0.015% Brij-35 (Sigma, B4184)
# The reaction is incubated for 90 min at 25 C, and then stopped by the addition of 70 ul of Stop buffer (100 mM HEPES pH 7.5, 0.015% Brij-35, 10 mM EDTA (Sigma, E7889)).
# The plate is read on a Caliper LC3000 in an Off-Chip mobility shift assay format, using the following parameters for a 12-sipper chip: screening pressure—1.8 psi, upstream voltage—2700, downstream voltage—1000. These conditions cause unphosphorylated substrate and phosphorylated product peptide to resolve as separate peaks allowing direct measurement of percentage of conversion of substrate to product. The percent conversion can be plotted against concentration of inhibitor to produce a sigmoidal dose response curve, from which an 1050 can be calculated using XLFit for Microsoft Excel.
# In the desired wells of a 384-well plate, Aurora A (0.067 ng/ul) was incubated with 15 uM ATP (the KM value), 1 mM DTT, 1 mM MgCl2, and 1 uM peptide substrate (sequence FITC-LRRASLG-(CONH2), FITC=fluorescein isothiocyanate) in 100 mM HEPES pH 7.5 and 0.015% Brij-35 buffer. The reaction was incubated for 90 min at 25 C, and then stopped by the addition of 45 ul of Stop buffer (100 mM HEPES ph 7.5, 0.015% Brij-35, 10 mM EDTA).
# The plate was read in a Caliper LC 3000 in an Off-Chip mobility shift assay format, using the following parameters: screening pressure—1.8 psi, upstream voltage—2700, downstream voltage—1000. These conditions cause unphosphorylated substrate peptide to resolve as a peak before that of the phosphorylated peptide product.
# In the following table “+” means >100 nM, “++” means 11-100 nM, and “+++” means <11 nM.
row,Structure (SMILES),IC50 [nM]
1,"CN(C)CCNC(=O)c1ccc2c(=O)[nH]c3nccc(Cl)c3c2c1 [Compound 296, 1-Chloro-N-(2-(dimethylamino)ethyl)-6-oxo-5,6-dihydrobenzo[c][1,8]naphthyridine-9-carboxamide]",> 100
2,"Cc1cc(Nc2ccnc3[nH]c(=O)c4ccccc4c23)n(CC(=O)Nc2ccccc2)n1 [Compound 308, 2-(3-Methyl-5-(6-oxo-5,6-dihydrobenzo[c][1,8]naphthyridin-1-ylamino)-1H-pyrazol-1-yl)-N-phenylacetamide]",> 100
3,"Cc1cc(Nc2ccnc3[nH]c(=O)c4ccccc4c23)n(CC(=O)Nc2ccc(F)c(F)c2)n1 [Compound 309, N-(3,4-difluorophenyl)-2-(3-methyl-5-(6-oxo-5,6-dihydrobenzo[c][1,8]naphthyridin-1-ylamino)-1H-pyrazol-1-yl)acetamide]",> 100
4,"O=C(Cc1cc(Nc2ccnc3[nH]c(=O)c4ccccc4c23)n[nH]1)Nc1ccc(F)c(F)c1 [Compound 313, N-(3,4-Difluorophenyl)-2-(3-(6-oxo-5,6-dihydrobenzo[c][1,8]naphthyridin-1-ylamino)-1H-pyrazol-5-yl)acetamide]",> 100
5,"O=C(Cc1cc(Nc2ccnc3[nH]c(=O)c4ccccc4c23)n[nH]1)Nc1cccc(F)c1 [Compound 314, N-(3-Fluorophenyl)-2-(3-(6-oxo-5,6-dihydrobenzo[c][1,8]naphthyridin-1-ylamino)-1H-pyrazol-5-yl)acetamide]",> 100
6,"O=C(Cc1cc(Nc2ccnc3[nH]c(=O)c4ccccc4c23)n[nH]1)Nc1ccccc1 [Compound 315, 2-(3-(6-Oxo-5,6-dihydrobenzo[c][1,8]naphthyridin-1-ylamino)-1H-pyrazol-5-yl)-N-phenylacetamide]",> 100
7,"O=C(Nc1ccccc1)c1ccc(Nc2ccnc3[nH]c(=O)c4ccccc4c23)cc1 [Compound 317, 4-(6-Oxo-5,6-dihydrobenzo[c][1,8]naphthyridin-1-ylamino)-N-phenylbenzamide]",> 100
8,"Cc1cc(Nc2ccnc3[nH]c(=O)c4ccccc4c23)ccc1NC(=O)c1ccccc1 [Compound 322, N-(2-Methyl-4-(6-oxo-5,6-dihydrobenzo[c][1,8]naphthyridin-1-ylamino)phenyl)benzamide]",> 100
9,"O=c1[nH]c2nccc(Nc3ccc(OCc4ccccc4)cc3)c2c2ccccc12 [Compound 329, 1-(4-(Benzyloxy)phenylamino)benzo[c][1,8]naphthyridin-6(5H)-one]",11 to 100
10,"O=c1[nH]c2nccc(Nc3ccc(OCc4cccc(F)c4)cc3)c2c2ccccc12 [Compound 330, 1-(4-(3-Fluorobenzyloxy)phenylamino)benzo[c][1,8]naphthyridin-6(5H)-one]",11 to 100
11,"O=c1[nH]c2nccc(Nc3ccc4c(cnn4Cc4ccccc4)c3)c2c2ccccc12 [Compound 333, 1-(1-Benzyl-1H-indazol-5-ylamino)benzo[c][1,8]naphthyridin-6(5H)-one]",11 to 100
12,"Cn1ccc(-c2ccc(Nc3ccnc4[nH]c(=O)c5ccccc5c34)cc2)n1 [Compound 335, 1-(4-(1-Methyl-1H-pyrazol-3-yl)phenylamino)benzo[c][1,8]naphthyridin-6(5H)-one]",> 100
13,"O=c1[nH]c2nccc(Nc3ccc(NS(=O)(=O)c4ccccc4)cc3)c2c2ccccc12 [Compound 341, N-(4-(6-Oxo-5,6-dihydrobenzo[c][1,8]naphthyridin-1-ylamino)phenyl)benzenesulfonamide]",> 100
14,"CNC(=O)Nc1ccc(Nc2ccnc3[nH]c(=O)c4ccccc4c23)cc1 [Compound 342, 1-Methyl-3-(4-(6-oxo-5,6-dihydrobenzo[c][1,8]naphthyridin-1-ylamino)phenyl)urea]",11 to 100
15,O=C(Nc1ccc(Nc2ccnc3[nH]c(=O)c4ccccc4c23)cc1)c1cccnc1 [Compound 344],11 to 100
16,"Cn1ccc(C(=O)Nc2ccc(Nc3ccnc4[nH]c(=O)c5ccccc5c34)cc2)n1 [Compound 345, 1-methyl-N-(4-(6-oxo-5,6-dihydrobenzo[c][1,8]naphthyridin-1-ylamino)phenyl)-1H-pyrazole-3-carboxamide]",11 to 100

# Continued, values first:
row,IC50 [nM],Structure (SMILES)
1,11 to 100,"CN1CCN(c2ccc3c(=O)[nH]c4nccc(Nc5ccc(NC(=O)c6ccccc6)cc5)c4c3c2)CC1 [Compound 294, N-(4-(9-(4-methylpiperazin-1-yl)-6-oxo-5,6-dihydrobenzo[c][1,8]naphthyridin-1-ylamino)phenyl)benzamide]"
2,< 11,"CN(C)CCNC(=O)c1ccc2c(=O)[nH]c3nccc(Nc4ccc(NC(=O)c5ccc(F)cc5C(F)(F)F)cc4)c3c2c1 [Compound 297, N-(2-(Dimethylamino)ethyl)-1-(4-(4-fluoro-2-(trifluoromethyl)benzamido)phenylamino)-6-oxo-5,6-dihydrobenzo[c][1,8]naphthyridine-9-carboxamide]"
3,< 11,"CN(C)CCNC(=O)c1ccc2c(=O)[nH]c3nccc(Nc4ccc(NC(=O)c5ccc(F)c(F)c5)cc4)c3c2c1 [Compound 298, 1-(4-(3,4-Difluorobenzamido)phenylamino)-N-(2-(dimethylamino)ethyl)-6-oxo-5,6-dihydrobenzo[c][1,8]naphthyridine-9-carboxamide]"
4,11 to 100,"O=C(Cc1ccc(Nc2ccnc3[nH]c(=O)c4ccccc4c23)cc1)Nc1ccccc1 [Compound 303, 2-(4-(6-Oxo-5,6-dihydrobenzo[c][1,8]naphthyridin-1-ylamino)phenyl)-N phenylacetamide]"
5,11 to 100,"O=C(Nc1ccc(Nc2ccnc3[nH]c(=O)c4ccccc4c23)cc1F)c1ccccc1 [Compound 320, N-(2-Fluoro-4-(6-oxo-5,6-dihydrobenzo[c][1,8]naphthyridin-1-ylamino)phenyl) benzamide]"
6,< 11,"O=C(Nc1ccc(Nc2ccnc3[nH]c(=O)c4ccccc4c23)c(F)c1)c1ccccc1 [Compound 321, N-(3-Fluoro-4-(6-oxo-5,6-dihydrobenzo[c][1,8]naphthyridin-1-ylamino)phenyl)benzamide]"
7,11 to 100,"O=C(Nc1ccc(Nc2ccnc3[nH]c(=O)c4ccccc4c23)cn1)c1ccccc1 [Compound 324, N-(5-(6-Oxo-5,6-dihydrobenzo[c][1,8]naphthyridin-1-ylamino)pyridin-2-yl)benzamide]"
8,11 to 100,"O=C(Nc1ccc(CNc2ccnc3[nH]c(=O)c4ccccc4c23)cc1)c1ccccc1 [Compound 325, N-(4-((6-Oxo-5,6-dihydrobenzo[c][1,8]naphthyridin-1-ylamino)methyl)phenyl)benzamide]"
9,11 to 100,"O=C(Nc1ccc(CNc2ccnc3[nH]c(=O)c4ccccc4c23)cc1)c1cc(F)cc(F)c1 [Compound 326, 3,5-Difluoro-N-(4-((6-oxo-5,6-dihydrobenzo[c][1,8]naphthyridin-1-ylamino)methyl)phenyl)benzamide]"
10,11 to 100,"O=C(NCc1ccc(Nc2ccnc3[nH]c(=O)c4ccccc4c23)cc1)c1ccccc1 [Compound 327, N-(4-(6-oxo-5,6-dihydrobenzo[c][1,8]naphthyridin-1-ylamino)benzyl)benzamide]"
11,< 11,"O=C(Nc1ccccc1)Nc1ccc(Nc2ccnc3[nH]c(=O)c4ccccc4c23)cc1 [Compound 343, 1-(4-(6-Oxo-5,6-dihydrobenzo[c][1,8]naphthyridin-1-ylamino)phenyl)-3-phenylurea]"
